According to patent publication US20060234934A1, “Composition and Method for Selective Cytostasis” (priority 2005, published 2006):

Tests used:
[1] = tested on: Malignant melanoma A375 cells; experiment: 3[H]-thymidine incorporation in A375 cell cultures; type: cell-based
Description: Each fraction was reconstituted in 110 μl of Dulbecco's modified Eagle's medium (DMEM) with fetal calf serum (FCS) 5 vol. %, 100 I.U. penicillin, 100 μg streptomycin and 2 nmole glutamine.
Malignant melanoma A375 cells (obtained from the American Type Culture Collection, Rockville, Md.) were counted in a counter (obtained from Coulter Diagnostics, Hialeah, Fla.), and about 4,000 cells were seeded into each well of a 96 well microtiter plate (obtained from Fisher Scientific, Springfield, N.J.) with 200 I.U. penicillin, 200 µg streptomycin and DMEM containing FCS 5 vol. %, 2 nmole glutamine, and […] HEPES (hydroxyethylpiperazine-ethanesulfonic acid buffer) as needed to give a final well volume of […]. […]
The cell cultures were terminated and harvested with a cell harvester (obtained from Flow Laboratories, McLean, Va., under the designation Titertek®), removing the contents of each microtiter plate well onto glass fiber filter paper. […] The strips were placed in scintillation vials and counted in 2 ml scintillation solution (obtained from Fisher Scientific, Springfield, N.J., under the designation Scintiverse®) using a scintillation counter (Model No. LS 100 C. obtained from Beckman Instruments, Somerset, N.J.) to determine the uptake of ^3[H]-thymidine into newly synthesized DNA.

[2] = tested on: ALL line MOLT-4 (CRL1582); experiment: 3[H]thymidine uptake in leukemic cell line MOLT-4; type: cell-based, human; settings: 50 nG/mL
Description: For example, the ALL line MOLT-4 (now denoted CRL1582 by the ATCC) was used for testing a representative cytostatic peptide for its effect on leukemic cells. The testing method described by Kikuwa, et al (1986), which is hereby incorporated herein by reference. In brief, the cells were maintained as a suspension in RPMI 1640 (Gibco) and 10% FCS, 100 u. penicillin G/mL and 100 micrograms streptomycin/mL with 2 mM L-glutamine.
Representative non-toxic cytostatic peptides were tested in still other cancer cell lines.

## serine-glutamine-cysteine-glutamic acid-glutamine-glutamic acid-glycine-glycine-phenalalanine-cysteine-arginine-phenylalanine-leucine-leucine-cysteine-proline-serine-arginine-threonine-serine-aspartic acid-isoleucine-glysine-lysine-leucine-glycine-cysteine-glutamic acid-proline-leucine-tryptophan-lysine-cysteine-cysteine-lysine-arginine-tryptophan-glycine-glycine [peak Q]
[1]; HPLC fraction
  less 3[H]-thymidine uptake than controls: about 50%
[1]; melanoma cells
  amount sufficient to arrest the proliferations of at least about 100,000 melanoma cells: about 50 ng
[2]
  less 3[H]thymidine uptake than controls: 90-95%
  visual appearance of cells: altered “rounded” visual appearance
